Laboratory results published in patent publication US20220169629A1, “PESTICIDALLY ACTIVE DIAZINE-AMIDE COMPOUNDS” (SYNGENTA CROP PROTECTION AG, priority 2019, published 2022).

Assays:
Type in all cases: in vivo
[1] = test system: Plutella xylostella (diamond back moth); assay: Example B5: Plutella xylostella (diamond back moth), artificial diet, 24-well, eggs; details: 192 h, application rate of 200 ppm, 8 days after infestation, read-out: control in at least one of the two categories (mortality or growth inhibition)
Experimental: Example B5: Plutella xylostella (Diamond Back Moth)
24-well microtiter plates with artificial diet were treated with aqueous test solutions prepared from 10′000 ppm DMSO stock solutions by pipetting. After drying, Plutella eggs were pipetted through a plastic stencil onto a gel blotting paper and the plate was closed with it. The samples were assessed for mortality and growth inhibition in comparison to untreated samples 8 days after infestation.

[2] = test system: Chilo suppressalis (striped rice stemborer); assay: Example B4: Chilo suppressalis (striped rice stemborer), artificial diet, L2 larvae; details: 144 h, application rate of 200 ppm, 6 days after infestation, L2 larvae on artificial diet, read-out: control in at least one of the three categories (mortality, anti-feeding or growth inhibition)
Experimental: Example B4: Chilo suppressalis (Striped rice stemborer)
24-well microtiter plates with artificial diet were treated with aqueous test solutions prepared from 10′000 ppm DMSO stock solutions by pipetting. After drying, the plates were infested with L2 larvae (6-8 per well). The samples were assessed for mortality, anti-feeding effect, and growth inhibition in comparison to untreated samples 6 days after infestation. Control of Chilo suppressalis by a test sample is given when at least one of the categories mortality, anti-feedant effect, and growth inhibition is higher than the untreated sample.

[3] = test system: Plutella xylostella (diamondback moth); assay: Example B10: Plutella xylostella (diamondback moth), 96-well artificial diet; details: 216 h, application rate of 500 ppm, 9 days after infestation, eggs/L1 larvae
Experimental: Example B10: Plutella xylostella (Diamondback Moth)
96-well microtiter plates containing artificial diet were treated with aqueous test solutions, prepared from 10′000 ppm DMSO stock solutions, by a liquid handling robot. After drying, eggs (˜30 per well) were infested onto a netted lid which was suspended above the diet. The eggs hatch and L1 larvae move down to the diet. The samples were assessed for mortality 9 days after infestation.

[4] = test system: Myzus persicae (green peach aphid); assay: Example B6: Myzus persicae (green peach aphid), intrinsic activity; details: 120 h, test rate of 12 ppm, 5 days after infestation, sucrose solution, infested pea seedlings
Text: Example B6: Myzus persicae (Green Peach Aphid): Intrinsic Activity
Test compounds prepared from 10′000 ppm DMSO stock solutions were applied by pipette into 24-well microtiter plates and mixed with sucrose solution. The plates were closed with a stretched Parafilm. A plastic stencil with 24 holes was placed onto the plate and infested pea seedlings were placed directly on the Parafilm. The infested plate was closed with a gel blotting paper and another plastic stencil and then turned upside down. The samples were assessed for mortality 5 days after infestation.

[5] = test system: Spodoptera littoralis (Egyptian cotton leaf worm); assay: Example B7: Spodoptera littoralis (Egyptian cotton leaf worm), sprayed cotton leaf discs, L1 larvae; details: foliar, 72 h, application rate of 200 ppm, 3 days after infestation, L1 larvae on cotton leaf discs, read-out: control in at least one of the three categories (mortality, anti-feeding or growth inhibition)
Experimental: Example B7: Spodoptera littoralis (Egyptian Cotton Leaf Worm)
Cotton leaf discs were placed onto agar in 24-well microtiter plates and sprayed with aqueous test solutions prepared from 10′000 ppm DMSO stock solutions. After drying the leaf discs were infested with five L1 larvae. The samples were assessed for mortality, anti-feeding effect, and growth inhibition in comparison to untreated samples 3 days after infestation. Control of Spodoptera littoralis by a test sample is given when at least one of the categories mortality, anti-feedant effect, and growth inhibition is higher than the untreated sample.

[6] = test system: Euschistus heros (neotropical brown stink bug); assay: Example B2: Euschistus heros (neotropical brown stink bug), sprayed soybean leaves, N2 nymphs; details: 120 h, application rate of 200 ppm, 5 days after infestation, N2 nymphs on soybean leaves, read-out: control in at least one of the two categories (mortality or growth inhibition)
Experimental: Example B2: Euschistus heros (Neotropical Brown Stink Bug)
Soybean leaves on agar in 24-well microtiter plates were sprayed with aqueous test solutions prepared from 10′000 ppm DMSO stock solutions. After drying the leaves were infested with N2 nymphs. The samples were assessed for mortality and growth inhibition in comparison to untreated samples 5 days after infestation.

[7] = test system: Diabrotica balteata (corn root worm); assay: Example B1: Diabrotica balteata (corn root worm), sprayed maize sprouts, L2 larvae; details: 96 h, application rate of 200 ppm, 4 days after infestation, L2 larvae on maize sprouts, read-out: control in at least one of the two categories (mortality or growth inhibition)
Experimental: Example B1: Diabrotica Balteata (Corn Root Worm)
Maize sprouts placed onto an agar layer in 24-well microtiter plates were treated with aqueous test solutions prepared from 10′000 ppm DMSO stock solutions by spraying. After drying, the plates were infested with L2 larvae (6 to 10 per well). The samples were assessed for mortality and growth inhibition in comparison to untreated samples 4 days after infestation.

[8] = test system: Spodoptera littoralis (Egyptian cotton leaf worm); assay: Example B8: Spodoptera littoralis (Egyptian cotton leaf worm), uptake by lettuce roots from agar; details: 144 h, test rate of 12.5 ppm, 6 days after infestation, compound absorbed by lettuce roots, read-out: control in at least one of the three categories (mortality, anti-feeding, or growth inhibition)
Text: Example B8: Spodoptera littoralis (Egyptian Cotton Leaf Worm)
Test compounds were applied by pipette from 10′000 ppm DMSO stock solutions into 24-well plates and mixed with agar. Lettuce seeds were placed onto the agar and the multi well plate was closed by another plate which contained also agar. After 7 days the compound was absorbed by the roots and the lettuce grew into the lid plate. The lettuce leaves were then cut off into the lid plate. Spodoptera eggs were pipetted through a plastic stencil onto a humid gel blotting paper and the lid plate was closed with it. The samples were assessed for mortality, anti-feedant effect and growth inhibition in comparison to untreated samples 6 days after infestation.

[9] = test system: Myzus persicae (green peach aphid); assay: Example B9: Myzus persicae (green peach aphid), 96-well sucrose solution; details: 120 h, application rate of 50 ppm, 5 days after infestation
Text: Example B9: Myzus persicae (Green Peach Aphid)
Test compounds prepared from 10′000 ppm DMSO stock solutions were applied by a liquid handling robot into 96-well microtiter plates and mixed with a sucrose solution. Parafilm was stretched over the 96-well microtiter plate and a plastic stencil with 96 holes was placed onto the plate. Aphids were sieved into the wells directly onto the Parafilm. The infested plates were closed with a gel blotting card and a second plastic stencil and then turned upside down. The samples were assessed for mortality 5 days after infestation.

CC(NC(=O)c1cc(OCC(F)F)cc(C(F)(F)F)c1)c1nccnc1-c1ncc(OC(F)F)cn1 (stereo not shown) [Compound P27, 3-(2,2-difluoroethoxy)-N-[1-[3-[5-(difluoromethoxy)pyrimidin-2-yl]pyrazin-2-yl]ethyl]-5-(trifluoromethyl)benzamide]
≥ 80%: percent control (mortality or growth inhibition) at 200 ppm [1] | control at 200 ppm [2] | mortality at 500 ppm [3] | mortality at 12 ppm [4] | percent control (mortality, anti-feeding or growth inhibition) at 200 ppm [5]

CC(NC(=O)c1cc(OC(F)F)cc(C(F)(F)F)c1)c1nccnc1-c1ncc(OCC(F)(F)F)cn1 (stereo not shown) [Compound P3, 3-(difluoromethoxy)-N-[1-[3-[5-(2,2,2-trifluoroethoxy)pyrimidin-2-yl]pyrazin-2-yl]ethyl]-5-(trifluoromethyl)benzamide]
≥ 80%: percent control (mortality or growth inhibition) at 200 ppm [1] | control at 200 ppm [2] | percent control (mortality or growth inhibition) at 200 ppm [6] | mortality at 12 ppm [4] | percent control (mortality, anti-feeding or growth inhibition) at 200 ppm [5] | percent control (mortality or growth inhibition) at 200 ppm [7]

C[C@H](NC(=O)c1cc(C(F)(F)F)cc(C(F)(F)F)c1)c1nccnc1-c1ccc(C#N)cn1 [Compound P34, N-[(1S)-1-[3-(5-cyano-2-pyridyl)pyrazin-2-yl]ethyl]-3,5-bis(trifluoromethyl)benzamide]
≥ 80%: percent control (mortality or growth inhibition) at 200 ppm [1] | control at 200 ppm [2] | mortality at 500 ppm [3] | percent control (mortality, anti-feeding or growth inhibition) at 200 ppm [5] | percent control (mortality, anti-feeding or growth inhibition) at 12.5 ppm [8] | percent control (mortality or growth inhibition) at 200 ppm [7]

CC(NC(=O)c1cc(OCC(F)(F)F)cc(C(F)(F)F)c1)c1nccnc1-c1ncc(OCC(F)(F)F)cn1 (stereo not shown) [Compound P5, 3-(2,2,2-trifluoroethoxy)-N-[1-[3-[5-(2,2,2-trifluoroethoxy)pyrimidin-2-yl]pyrazin-2-yl]ethyl]-5-(trifluoromethyl)benzamide]
≥ 80%: percent control (mortality or growth inhibition) at 200 ppm [1] | control at 200 ppm [2] | percent control (mortality or growth inhibition) at 200 ppm [6] | percent control (mortality, anti-feeding or growth inhibition) at 200 ppm [5]

CC(NC(=O)c1cc(C(F)(F)F)cc(C(F)(F)F)c1)c1nccnc1-c1ncc(OCC(F)F)cn1 (stereo not shown) [Compound P33, N-[1-[3-[5-(2,2-difluoroethoxy)pyrimidin-2-yl]pyrazin-2-yl]ethyl]-3,5-bis(trifluoromethyl)benzamide]
≥ 80%: percent control (mortality or growth inhibition) at 200 ppm [1] | control at 200 ppm [2] | percent control (mortality or growth inhibition) at 200 ppm [6] | percent control (mortality, anti-feeding or growth inhibition) at 200 ppm [5] | percent control (mortality or growth inhibition) at 200 ppm [7]

C[C@H](NC(=O)c1cc(C(F)(F)F)cc(C(F)(F)F)c1)c1nccnc1-c1ccc(OC(F)F)cn1 [Compound P24, N-[(1S)-1-[3-[5-(difluoromethoxy)-2-pyridyl]pyrazin-2-yl]ethyl]-3,5-bis(trifluoromethyl)benzamide]
≥ 80%: percent control (mortality or growth inhibition) at 200 ppm [1] | control at 200 ppm [2] | mortality at 500 ppm [3] | percent control (mortality or growth inhibition) at 200 ppm [6] | percent control (mortality, anti-feeding or growth inhibition) at 200 ppm [5] | percent control (mortality, anti-feeding or growth inhibition) at 12.5 ppm [8] | percent control (mortality or growth inhibition) at 200 ppm [7]

CC(NC(=O)c1cc(Cl)cc(C(F)(F)F)c1)c1nccnc1-c1ncc(OCC(F)(F)F)cn1 (stereo not shown) [Compound P37, 3-chloro-N-[1-[3-[5-(2,2,2-trifluoroethoxy)pyrimidin-2-yl]pyrazin-2-yl]ethyl]-5-(trifluoromethyl)benzamide]
≥ 80%: percent control (mortality or growth inhibition) at 200 ppm [1] | control at 200 ppm [2] | percent control (mortality or growth inhibition) at 200 ppm [6] | percent control (mortality, anti-feeding or growth inhibition) at 200 ppm [5] | percent control (mortality, anti-feeding or growth inhibition) at 12.5 ppm [8] | percent control (mortality or growth inhibition) at 200 ppm [7]

CC(NC(=O)c1cc(OCC(F)F)cc(C(F)(F)F)c1)c1nccnc1-c1ncc(OCC(F)(F)F)cn1 (stereo not shown) [Compound P1, 3-(2,2-difluoroethoxy)-N-[1-[3-[5-(2,2,2-trifluoroethoxy)pyrimidin-2-yl]pyrazin-2-yl]ethyl]-5-(trifluoromethyl)benzamide]
≥ 80%: percent control (mortality or growth inhibition) at 200 ppm [1] | control at 200 ppm [2] | percent control (mortality or growth inhibition) at 200 ppm [6] | percent control (mortality, anti-feeding or growth inhibition) at 200 ppm [5]

CC(NC(=O)c1cc(OCC(F)(F)F)cc(C(F)(F)F)c1)c1nccnc1-c1ccc(C#N)cn1 (stereo not shown) [Compound P25, N-[1-[3-(5-cyano-2-pyridyl)pyrazin-2-yl]ethyl]-3-(2,2,2-trifluoroethoxy)-5-(trifluoromethyl)benzamide]
≥ 80%: percent control (mortality or growth inhibition) at 200 ppm [1] | control at 200 ppm [2] | mortality at 500 ppm [3] | percent control (mortality, anti-feeding or growth inhibition) at 200 ppm [5] | percent control (mortality or growth inhibition) at 200 ppm [7]

CC(NC(=O)c1cc(OC(F)F)cc(C(F)(F)F)c1)c1nccnc1-c1ncc(OC(F)F)cn1 (stereo not shown) [Compound P26, 3-(difluoromethoxy)-N-[1-[3-[5-(difluoromethoxy)pyrimidin-2-yl]pyrazin-2-yl]ethyl]-5-(trifluoromethyl)benzamide]
≥ 80%: percent control (mortality or growth inhibition) at 200 ppm [1] | control at 200 ppm [2] | mortality at 50 ppm [9] | mortality at 500 ppm [3] | mortality at 12 ppm [4] | percent control (mortality, anti-feeding or growth inhibition) at 200 ppm [5] | percent control (mortality or growth inhibition) at 200 ppm [7]
